SMILES strings stand for the structures. Counter-ions that a name gives are not always drawn.

Holding throughout (assay type): biochemical
One test addresses CDK6/Cyclin D3 (Homo sapiens, UniProt Q00534). As to the kind of experiment: Kinase activity assay, CDK6/Cyclin D3 (tested in a similar manner). To be noted: tested in a similar manner to CDK4/cyclin D3. The procedure: (§1) The inhibitory effect of compounds against the kinase CDK4/cyclin D3 was detected by Caliper Mobility Shift Assay method. The final concentration of the compounds to be tested was set at 10 concentrations starting from 1 μM by 3-fold serial dilution. 5 μL of compounds at 5-fold final concentration and 10 μL of CDK4/cyclin D3 kinase solution at a final concentration of 10 nM was added to a 384-well reaction plate, respectively. The plate was pre-incubated for 10 min at room temperature (with negative control wells containing 10 μL of kinase buffer and 5 μL of 5% DMSO; positive control wells containing 10 μL of kinase solution and 5 μL of 5% DMSO). The reaction was initiated by adding 10 μL of ATP at a final concentration of 250 μM and the corresponding substrate peptide mixture at room temperature for 150 minutes. 30 μL of stop detection solution containing EDTA was added to stop the kinase reaction. Caliper EZ Reader was used to read the conversion rate. Inhibition rate %=(average conversion rate of positive control %−conversion rate of sample %)/(average conversion rate of positive control %−average conversion rate of negative control %). wherein: negative control wells represent the conversion rate readings of wells without enzymatic activity; positive control wells represent conversion readings for wells with no compound inhibition. The log(inhibitor) vs. response—Variable slope of the analysis software GraphPad Prism 5 was used with log concentration value as the X-axis and the percent inhibition rate as the Y-axis to fit the dose-response curve, the IC50 value of each compound on the enzyme activity was thus obtained. Calculation formula: Y=Bottom+(Top−Bottom)/(1+10^((Log IC50−X)*HillSlope)).
(§2) The IC50 values for CDK6/Cyclin D3 and CDK2/Cyclin A2 of compounds of the present disclosure were tested in a similar manner.

The target in a further test is CDK4/cyclin D3 (Homo sapiens, UniProt P11802). As to the kind of experiment: Kinase activity assay, Caliper Mobility Shift Assay, CDK4/cyclin D3. To be noted: 10 nM kinase, ATP 250 μM, 150 minutes at room temperature. The procedure:
as §1

Another test has as its target CDK2/Cyclin A2 (Homo sapiens, UniProt P24941). The experiment in a line: Kinase activity assay, CDK2/Cyclin A2 (tested in a similar manner). To be noted: tested in a similar manner to CDK4/cyclin D3. On the procedure:
as §1, §2

Chain of CDK4/cyclin D3 (P11802 whole entry, species assumed): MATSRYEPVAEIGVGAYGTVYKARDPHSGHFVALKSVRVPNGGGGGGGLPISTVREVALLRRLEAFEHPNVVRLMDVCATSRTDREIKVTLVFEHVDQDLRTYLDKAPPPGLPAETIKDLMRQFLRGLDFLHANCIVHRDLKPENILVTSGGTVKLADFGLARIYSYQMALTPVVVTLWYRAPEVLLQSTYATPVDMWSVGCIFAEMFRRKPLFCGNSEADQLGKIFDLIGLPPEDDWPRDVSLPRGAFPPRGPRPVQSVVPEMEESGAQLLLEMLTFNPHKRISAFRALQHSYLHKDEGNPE
Chain of CDK4/cyclin D3 (P30281 whole entry partner, species assumed): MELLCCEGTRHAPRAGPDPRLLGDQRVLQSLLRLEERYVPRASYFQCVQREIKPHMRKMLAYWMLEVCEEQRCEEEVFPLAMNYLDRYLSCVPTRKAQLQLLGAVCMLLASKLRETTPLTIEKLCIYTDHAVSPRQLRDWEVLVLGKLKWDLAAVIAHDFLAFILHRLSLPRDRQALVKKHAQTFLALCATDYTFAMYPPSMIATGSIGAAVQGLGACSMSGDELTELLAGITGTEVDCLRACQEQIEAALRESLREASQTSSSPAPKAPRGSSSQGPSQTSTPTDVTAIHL
Chain of CDK6/Cyclin D3 (Q00534 whole entry, species assumed): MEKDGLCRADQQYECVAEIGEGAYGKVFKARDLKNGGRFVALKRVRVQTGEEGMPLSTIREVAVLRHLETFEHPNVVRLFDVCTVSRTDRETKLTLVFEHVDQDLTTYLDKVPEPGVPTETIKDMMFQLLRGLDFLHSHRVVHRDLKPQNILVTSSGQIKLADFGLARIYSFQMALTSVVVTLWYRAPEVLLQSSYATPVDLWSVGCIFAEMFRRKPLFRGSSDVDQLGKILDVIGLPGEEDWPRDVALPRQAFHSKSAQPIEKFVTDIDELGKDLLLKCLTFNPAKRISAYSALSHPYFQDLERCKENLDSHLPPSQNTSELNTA
Chain of CDK6/Cyclin D3 (P30281 whole entry partner, species assumed): as the sequence (P30281 whole entry partner, species assumed) above

Usually IC50 stands for the concentration needed to halve the response being measured. For the compound `CC(C)c1noc2ccc3cnc(Nc4ccc(N5CCNCC5)cn4)nc3c12` [Compound I-1, 9-isopropyl-N-(5-(piperazin-1-yl)pyridin-2-yl)isoxazolo[5,4-H]quinazolin-2-amine hydrochloride], the IC50 against CDK6/Cyclin D3 worked out at 7 nM; on CDK4/cyclin D3, 2 nM.
`Cc1cc(Nc2ncc3ccc4onc(C(C)C)c4c3n2)ncc1N1CCNCC1` [Compound I-2, 9-isopropyl-N-(4-methyl-5-(piperazin-1-yl)pyridin-2-yl)isoxazolo[5,4-H] quinazolin-2-amine]: the IC50 stood at 23 nM at CDK6/Cyclin D3 and 6 nM at CDK4/cyclin D3.
For the compound `Cc1nc(Nc2ncc3ccc4onc(C(C)C)c4c3n2)ccc1N1CCNCC1` [Compound I-3, 9-isopropyl-N-(6-methyl-5-(piperazin-1-yl)pyridin-2-yl)isoxazolo[5,4-H] quinazolin-2-amine], the half-inhibitory concentration (IC50) came to 36 nM against CDK6/Cyclin D3 and 8 nM at CDK4/cyclin D3.
As to `CC(C)c1noc2ccc3cnc(Nc4ccc(N5CCN(C)CC5)cn4)nc3c12` [Compound I-4, 9-isopropyl-N-(5-(4-methylpiperazin-1-yl)pyridin-2-yl)isoxazolo [5,4-H]quinazolin-2-amine], the concentration for half-maximal inhibition (IC50) against CDK6/Cyclin D3 worked out at 4 nM; at CDK4/cyclin D3, 1 nM.
`CCN1CCN(c2ccc(Nc3ncc4ccc5onc(C(C)C)c5c4n3)nc2)CC1` [Compound I-5, N-(5-(4-ethylpiperazin-1-yl)pyridin-2-yl)-9-isopropylisoxazolo [5,4-H]quinazolin-2-amine]: the figures for the half-maximal inhibitory concentration (IC50) on CDK6/Cyclin D3 and on CDK4/cyclin D3 were 4 nM and 1 nM, respectively.
As to `CCN1CCN(c2cnc(Nc3ncc4ccc5onc(C(C)C)c5c4n3)cc2C)CC1` [Compound I-6, N-(5-(4-ethylpiperazin-1-yl)-4-methylpyridin-2-yl)-9-isopropylisoxazolo[5,4-H] quinazolin-2-amine], the 50% inhibitory concentration (IC50) is 377 nM on CDK6/Cyclin D3 and 82 nM on CDK4/cyclin D3.
Take `CCN1CCN(c2ccc(Nc3ncc4ccc5onc(C(C)C)c5c4n3)nc2C)CC1` [Compound I-7, N-(5-(4-ethylpiperazin-1-yl)-6-methylpyridin-2-yl)-9-isopropylisoxazolo [5,4-H]quinazolin-2-amine]: the 50% inhibitory concentration (IC50) is 176 nM against CDK6/Cyclin D3 and 36 nM at CDK4/cyclin D3.
For the compound `CC(C)c1noc2ccc3cnc(Nc4ccc(N5CCOCC5)cn4)nc3c12` [Compound I-8, 9-isopropyl-N-(5-morpholinopyridin-2-yl)isoxazolo[5,4-H] quinazolin-2-amine], the concentration for half-maximal inhibition (IC50) is 15 nM on CDK6/Cyclin D3 and 5 nM on CDK4/cyclin D3.
Consider `CC(C)c1noc2ccc3cnc(Nc4ccc(N5CCN(C(C)C)CC5)cn4)nc3c12` [Compound I-9, 9-isopropyl-N-(5-(4-isopropylpiperazin-1-yl)pyridin-2-yl)isoxazolo [5,4-H]quinazolin-2-amine], for which the IC50 against CDK6/Cyclin D3 was 14 nM; on CDK4/cyclin D3, 4 nM.
`CC(C)c1noc2ccc3cnc(Nc4ccc(N5CCN(C6CC6)CC5)cn4)nc3c12` [Compound I-10, N-(5-(4-eyelopropylpiperazin-1-yl)pyridin-2-yl)-9-isopropylisoxazolo[5,4-H] quinazolin-2-amine]: the values for the half-inhibitory concentration (IC50) against CDK6/Cyclin D3 and on CDK4/cyclin D3 were 67 nM and 21 nM, respectively.
The like results for `CC(C)CN1CCN(c2ccc(Nc3ncc4ccc5onc(C(C)C)c5c4n3)nc2)CC1` [Compound I-11, N-(5-(4-isobutylpiperazin-1-yl)pyridin-2-yl)-9-isopropylisoxazolo[5,4-H] quinazolin-2-amine] were, in that order, 24 nM and 8 nM.
Take `CCN1CCN(Cc2ccc(Nc3ncc4ccc5onc(C(C)C)c5c4n3)nc2)CC1` [Compound I-12, N-(5-((4-ethylpiperazin-1-yl)methyl)pyridin-2-yl)-9-isopropylisoxazolo[5,4-H] quinazolin-2-amine]: the half-maximal inhibitory concentration (IC50) came out at 40 nM against CDK6/Cyclin D3 and 9 nM on CDK4/cyclin D3.
As for `CC(C)c1noc2ccc3cnc(Nc4ccc(N5CCC(N(C)C)CC5)cn4)nc3c12` [Compound I-13, N-(5-(4-(dimethylamino)piperidin-1-yl)pyridin-2-yl)-9-isopropylisoxazolo [5,4-H]quinazolin-2-amine], the IC50 against CDK6/Cyclin D3 is 12 nM; at CDK4/cyclin D3 it was 4 nM.
Take `CC(C)c1noc2ccc3cnc(Nc4ccc(C5CCNCC5)cn4)nc3c12` [Compound I-14, 9-isopropyl-N-(5-(piperidin-4-yl)pyridin-2-yl)isoxazolo[5,4-H] quinazolin-2-amine]: the 50% inhibitory concentration (IC50) against CDK6/Cyclin D3 is 10 nM; at CDK4/cyclin D3, 4 nM.
For the compound `CC(C)c1noc2ccc3cnc(Nc4ccc(N5CCNCC5)nn4)nc3c12` [Compound I-15, 9-isopropyl-N-(6-(piperazin-1-yl)pyridazin-3-yl)isoxazolo[5,4-H]quinazolin-2-amine], the IC50 at CDK6/Cyclin D3 came to 19 nM; at CDK4/cyclin D3, 7 nM.
For `CC(C)c1noc2ccc3cnc(Nc4ccc(N5CCNCC5=O)cn4)nc3c12` [Compound I-16, 1-(6-((9-isopropylisoxazolo[5,4-H]quinazolin-2-yl)amino)pyridin-3-yl)piperazin-2-one], the half-maximal inhibitory concentration (IC50) on CDK6/Cyclin D3 was found to be 25 nM; at CDK4/cyclin D3, 7 nM.
On to `CC(C)c1noc2ccc3cnc(Nc4ccc(N5CCS(=O)(=O)CC5)cn4)nc3c12` [Compound I-17, 4-(6-((9-isopropylisoxazolo[5,4-H]quinazolin-2-yl)amino)pyridin-3-yl)thiomorpholine 1,1-dioxide], for which the half-inhibitory concentration (IC50) against CDK6/Cyclin D3 was 21 nM; at CDK4/cyclin D3 it was 5 nM.
Regarding `CC(C)Cc1noc2ccc3cnc(Nc4ccc(N5CCNCC5)cn4)nc3c12` [Compound I-18, 9-isobutyl-N-(5-(piperazin-1-yl)pyridin-2-yl)isoxazolo[5,4-H]quinazolin-2-amine], the 50% inhibitory concentration (IC50) at CDK6/Cyclin D3 was 32 nM; on CDK4/cyclin D3 it was 6 nM.
Regarding `CC(C)Cc1noc2ccc3cnc(Nc4ccc(N5CCN(C)CC5)cn4)nc3c12` [Compound I-19, 9-isobutyl-N-(5-(4-methylpiperazin-1-yl)pyridin-2-yl)isoxazolo[5,4-H] quinazolin-2-amine], the IC50 worked out at 37 nM against CDK6/Cyclin D3 and 7 nM on CDK4/cyclin D3.
For the compound `CCN1CCN(c2ccc(Nc3ncc4ccc5onc(CC(C)C)c5c4n3)nc2)CC1` [Compound I-20, N-(5-(4-ethylpiperazin-1-yl)pyridin-2-yl)-9-isobutylisoxazolo[5,4-H] quinazolin-2-amine], the values for the half-maximal inhibitory concentration (IC50) at CDK6/Cyclin D3 and at CDK4/cyclin D3 were 39 nM and 7 nM, respectively.
The like results for `CC(C)Cc1noc2ccc3cnc(Nc4ccc(N5CCOCC5)cn4)nc3c12` [Compound I-21, 9-isobutyl-N-(5-morpholinopyridin-2-yl)isoxazolo[5,4-H]quinazolin-2-amine] were, in that order, 245 nM and 47 nM.
As to `c1cc(Nc2ncc3ccc4onc(C5CCCC5)c4c3n2)ncc1N1CCNCC1` [Compound I-22, 9-cyclopentyl-N-(5-(piperazin-1-yl)pyridin-2-yl)isoxazolo[5,4-H] quinazolin-2-amine], the half-inhibitory concentration (IC50) on CDK6/Cyclin D3 was determined as 21 nM; on CDK4/cyclin D3 it was 7 nM.
For the compound `CN1CCN(c2ccc(Nc3ncc4ccc5onc(C6CCCC6)c5c4n3)nc2)CC1` [Compound I-23, 9-cyclopentyl-N-(5-(4-methylpiperazin-1-yl)pyridin-2-yl)isoxazolo[5,4-H]quinazolin-2-amine], the 50% inhibitory concentration (IC50) against CDK6/Cyclin D3 is 15 nM; on CDK4/cyclin D3, 5 nM.
For `CC(C)c1noc2c1-c1nc(Nc3ccc(N4CCNCC4)cn3)ncc1CC2` [Compound I-24, 9-isopropyl-N-(5-(piperazin-1-yl)pyridin-2-yl)-5,6-dihydroisoxazolo[5,4-h]quinazolin-2-amine hydrochloride], the half-maximal inhibitory concentration (IC50) against CDK6/Cyclin D3 stood at 82 nM; on CDK4/cyclin D3 it was 13 nM.
Turning to `CCN1CCN(c2ccc(Nc3ncc4c(n3)-c3c(C(C)C)noc3CC4)nc2)CC1` [Compound I-25, N-(5-(4-ethylpiperazin-1-yl)pyridin-2-yl)-9-isopropyl-5,6-dihydroisoxazolo [5,4-H]quinazolin-2-amine], the figures for the 50% inhibitory concentration (IC50) on CDK6/Cyclin D3 and at CDK4/cyclin D3 were 64 nM and 11 nM, respectively.
On to `CC(C)c1noc2c1-c1nc(Nc3ccc(N4CCOCC4)cn3)ncc1CC2` [Compound I-26, 9-isopropyl-N-(5-morpholinopyridin-2-yl)-5,6-dihydroisoxazolo[5,4-H] quinazolin-2-amine], for which the results for the IC50 against CDK6/Cyclin D3 and on CDK4/cyclin D3 were 276 nM and 63 nM, respectively.
As for `CC(C)c1noc2ccc3cnc(Nc4ccc(N5CCNCC5)cc4)nc3c12` [Compound I-27, 9-isopropyl-N-(4-(piperazin-1-yl)phenyl)isoxazolo[5,4-H]quinazolin-2-amine], the half-maximal inhibitory concentration (IC50) on CDK2/Cyclin A2 is 6 nM; against CDK6/Cyclin D3 it was 8 nM; at CDK4/cyclin D3, 3 nM.
The like results for `CCN1CCN(c2ccc(Nc3ncc4ccc5onc(C(C)C)c5c4n3)cc2)CC1` [Compound I-28, N-(4-(4-ethylpiperazin-1-yl)phenyl)-9-isopropylisoxazolo[5,4-h] quinazolin-2-amine] were, in that order, 4 nM, 5 nM and 2 nM.
